One assay deals with ST membrane. The assay can be described thus: Confocal microscopy (bacterial cytological profiling). Format: cell-based, Salmonella enterica. The conditions noted are these: 5×MIC, 3 h. As to the method:
Mode of action of peptides analyzed through confocal microscopy: To determine the mode of action of P1 and P2, bacterial cytological profiling was conducted using confocal microscopy as described in. […] Incubated bacteria cultures were then centrifuged and re-suspended in 100 μL sterile water. Following suspension, 1 μg/mL of FM4-64 (Invitrogen™ Molecular Probes™) and 5 μM Syto-9 (Invitrogen™ Molecular Probes™) stains were added and incubated for 45 mins […] with 150 rpm. After incubation, the samples were centrifuged, and bacteria was re-suspended in 10 μl sterile water. For microscopic analysis, 3 μL of bacterial suspension was added to glass slides with 1.2% agar and 20% LB media. Untreated ST bacterial culture was used as a control. Leica TCS SP6 confocal scanning microscope (Excitation/emission (nm); FM4-64 (515/640), SYTO-9 (485/498) was used at the Ohio State University's Molecular and Cellular Imaging Center (MCIC; mcic.osu.edu/microscopy).

The test system of a further assay is biofilm protected APEC. Nature of the assay: MBEC-HTP assay. Format: cell-based, E. coli. As to conditions: at MICs, 18 h; untreated 7.54 ± 0.07. As to the method: MBEC™-HTP assay: To test the efficacy of the peptides (P1, P2, and P3) against biofilm protected APEC, Innovotech's MBEC Assay® was conducted as described previously(27). Briefly, 150 μL of 0.05 OD600 (5×10^7 CFU/mL) adjusted APEC suspension in LB media was aliquoted into the wells of MBEC™ device containing polystyrene pegs and incubated for 36 h on a rocker platform at 37° C. to allow the biofilm formation. After biofilm formation, the pegs were washed to remove loosely adherent planktonic bacteria and transferred to a new 96-well plate (challenge plate) containing peptides at MICs in 200 μL diluted (25%) LB media. The diluted LB media mimics the minimal media which stimulates biofilm formation and maintenance. The plate was incubated for 18 h at 37° C. with rotation at 150 rpm. Sterile media and DMSO (solvent) were used as controls. Following incubation, the MICs of peptides in challenge plate were recorded. The peptides exposed pegs were transferred to new 96-well plate containing PBS and sonicated for 30 mins to disrupt the biofilm. The sonicated suspensions were then ten-fold serially diluted and plated on LB agar plates to enumerate the biofilm protected bacteria and the minimum biofilm eradication concentration (MBEC) of peptides were determined. Three independent experiments were conducted.

Assay [1] relates to commensal and probiotic bacteria. The assay can be described thus: Effect against beneficial microbes. Format: cell-based. As to conditions: at MICs. As to the method:
Effect against beneficial microbes: Peptides (P1, P2, and P3) were tested against different commensal and probiotic bacteria to determine their specificity of activity as described previously. Peptides were added at their MICs to 100 μL of known concentration of bacterial cultures and cultures were incubated under required conditions. Following incubation, OD600 of cultures was measured to determine the effect of peptides on bacterial growth.

The next assay deals with MlaA. The assay can be described thus: Immunoblot analysis. The conditions noted are these: densitometry. Format: cell-based, E. coli. On the procedure:
(§1) Immunoblot analysis: To corroborate the findings of gene expression study, level of OmpC and MlaA proteins upon peptides (P1, P2, and P3) treatment was investigated as described previously. Peptides treated culture of APEC O78 was prepared as above and DMSO treated culture was used as control. Post-treatment, the fractions of cytoplasmic and membrane proteins was prepared using ultracentrifugation as previously described. The concentrations of fractionated membrane proteins were then normalized based on 280 nm and separated on a 12% SDS-PAGE. For immunoblot analysis, membrane proteins (25 μg) resolved on SDS-PAGE above were electrotransferred onto an Immuno-Blot® PVDF Membrane (Bio-Rad) and probed for OmpC and MlaA using anti-OmpC (1:2,000) (ThermoFisher Scientific) and anti-MlaA (1:15,000; Dr. Thomas J. Silhavy) polyclonal antibodies and goat anti-rabbit IgG HRP-conjugated secondary antibody (Sigma-Aldrich). The membrane was developed with Clarity Western ECL Substrate (Bio-Rad) and visualized in a FluorChem Q (proteinsimple) imager. The density of OmpC and MlaA proteins was quantified using ImageJ software.
For orientation: In western blotting, separated proteins are transferred to a membrane and probed.

The subject of the next assay is OmpC. The assay can be described thus: Immunoblot analysis. As to conditions: densitometry. Format: cell-based, E. coli. On the procedure: as §1
Another assay has as its system APEC O78 membrane. The assay can be described thus: Transmission electron microscopy. Format: cell-based, E. coli. The conditions noted are these: 10×MIC, 3 h. On the procedure:
Transmission electron microscopy: To visualize the effect of peptides (P1, P2, and P3) on APEC membrane, transmission electron microscopy (TEM) was performed as described previously. The peptide treatment was performed as described above. […] After incubation, cells were fixed overnight at room temperature with 3% glutaraldehyde & 2% paraformaldehyde), washed, and postfixed with 1% osmium tetroxide (OsO4). The cells were then dehydrated with graded ethanol series and embedding was performed using Embed 812 Kit (Electron Microscopy Sciences, PA). Ultrathin (70 nm) sections were prepared on formvar-carbon coated grids and stained with uranyl acetate and lead citrate. Microscopy was performed using Hitachi H-7500 microscope at MCIC. Untreated bacterial culture was used as control.

Assay [2] deals with Salmonella enterica subsp. enterica serovar Enteritidis (SE). Format: cell-based. The conditions noted are these: No treatment. On the procedure:
MIC was determined by selecting peptide concentration at which there is no increased growth (no increase in OD), given indication of no ST growth. An independent repeat experiment was conducted.
Heat and protease tolerance of peptides: P1, P2, and P4 were heated for 6 minutes at 86° C. or treated with protease proteinase K, 200 μg/mL at 50° C. for 30 minutes. After which, the treated and/or heated peptides at their respective MICs were evaluated in the inhibition assay with Salmonella. The protocol from above was repeated in the Tecan with the same controls.
To analyze the perceived efficacy of arginine and lysine substitutes reported in previous studies, specific amino acid residues in P1 and P2 were replaced with lysine or arginine to test if the alliterations enhanced anti-Salmonella (ST and SE) activity. The MICs of the arginine or lysine substituted peptides ([…] (SEQ ID NO:37), […] (SEQ ID NO:38), […] (SEQ ID NO:39), KDENK (SEQ ID NO:41), PDEKK (SEQ ID NO:42), KDEKK (SEQ ID NO:43), KHTAPK (SEQ ID NO:45)) were determined as described early. Two independent experiments were conducted to ensure accuracy.

A further assay deals with multiple APEC serotypes. Format: cell-based, E. coli. As to the method:
Anti-APEC spectrum determination: Peptides (P1, P2, and P3) were tested against multiple APEC serotypes/strains to determine their spectrum of activity. Peptides were added at their MICs and the growth inhibitory activity of the peptides was determined as described above.

No end group written: not given here.

PDENK [Peptide P2, PDENK]: the “ST membrane in confocal microscopy (FM4-64 stain)” value in the assay with ST membrane was “little to no red stain present”. Also, the “Biofilm protected APEC (log CFU/mL)” value with biofilm protected APEC stood at 0.00 ± 0.00 log CFU/mL. For the same substance, in assay [1], the “Growth of Gram-negative beneficial bacteria, particularly E. coli” value is “inhibited” and the “Growth of Gram-positive beneficial bacteria” value was “no effect”. For the same substance, the “MlaA level decreased vs untreated APEC” value with MlaA is listed as 1.40 folds. Further, the “OmpC level lower than in untreated APEC” value in the assay on OmpC stood at 9.27 folds. For the same substance, the “APEC membrane in TEM” value with APEC O78 membrane is reported as “membrane either sloughed (or shed), ruptured, or flaccid”. For the same substance, the “MIC against SE” value in assay [2] was 15 mM. Also, the “Growth inhibition against APEC serotypes” value in the assay on multiple APEC serotypes was 95.0-100%.

The record behind these values is patent US20240181000A1, “LGG-DERIVED PEPTIDES AND METHODS OF USE THEREOF” (Ohio State Innovation Foundation, priority 2021, published 2024).
